# Entries after “also recorded” stand apart in the source; their conditions may differ.
# Tested on: c-fos-GFP expression in the mouse brain
# Assay: c-fos-GFP pharmacomaps of three antipsychotics at a moderate dosage (Example 9)
# Details: 5 mouse brains per drug; for brain regions activated (pharmacomap): haloperidol 0.25 mg/kg, risperidone 1.0 mg/kg, aripiprazole 1.0 mg/kg, vs saline; for c-fos-GFP activation, Anterior cingulate cortex (ACAd) / c-fos-GFP activation, Anterior cingulate cortex (ACAv) / c-fos-GFP activation, Basal, Central, Cortic. Amydgala (AMG) / c-fos-GFP activation, Bed nucleus of Stria Terminalis (BST) / c-fos-GFP activation, Caudate-putamen (CP, dorso-medial) / c-fos-GFP activation, Caudate-putamen (CP, ventro-medial) / c-fos-GFP activation, Caudoputamen (CP, dorsolateral) / c-fos-GFP activation, Caudoputamen (CP, ventrolateral) / c-fos-GFP activation, Central medial thalamic nucleus / c-fos-GFP activation, Claustrum (CLA) / c-fos-GFP activation, Dorsomedial hypoth. (HYP) / c-fos-GFP activation, Gostatory Cx (GU) / c-fos-GFP activation, Hippocampus: CA1, CA2, CA3 (HF) / c-fos-GFP activation, Hippocampus: DG / c-fos-GFP activation, Hypothalamus, ventromedial nuclei / c-fos-GFP activation, Infralimbic cortex (IL) / c-fos-GFP activation, Insular area, agranular / c-fos-GFP activation, Lateral Septum (LS) / c-fos-GFP activation, Lateral Spetal Nucl, dorsal part / c-fos-GFP activation, Midline Thalamus (Nucl Reuniens, RE) / c-fos-GFP activation, Midline Thalamus (PVT) / c-fos-GFP activation, Motor area, primary (MOp) / c-fos-GFP activation, Motor area, secondary (MOs) / c-fos-GFP activation, Nucleus Accumbens (ACB), core / c-fos-GFP activation, Nucleus Accumbens (ACB), shell / c-fos-GFP activation, Nucleus Accumbens (ACB), whole / c-fos-GFP activation, Olfactory tubercle (OT) / c-fos-GFP activation, Orbital cortex ventral (VO) / c-fos-GFP activation, Orbital cx (ORB), lateral / c-fos-GFP activation, Orbital cx (ORB), medial / c-fos-GFP activation, Piriform cx (PIR) / c-fos-GFP activation, Prelimbic cx (PL) / c-fos-GFP activation, RSPd, v, d and agl / c-fos-GFP activation, Red nucleus (RN) / c-fos-GFP activation, Somatosensory cx, primary / c-fos-GFP activation, Striatum, ventro-lateral / c-fos-GFP activation, Superior Colliculus (SC) / c-fos-GFP activation, Temporal cortex / c-fos-GFP activation, Ventromedial Thalamus (caudally) / c-fos-GFP activation, Zona Inserta: haloperidol 0.25, risperidone 1.0, aripiprazole 1.0 mg/kg, vs saline-injected control
smiles,measurement,value
O=C1CCc2ccc(OCCCCN3CCN(c4cccc(Cl)c4Cl)CC3)cc2N1 [aripiprazole],brain regions activated (pharmacomap),"activated a partially overlapping pattern, with more cortical areas, including prominent activation of auditory association and entorhinal areas; also recorded: Parts of the amygdala (AMG), hippocampal formation (HF), and midline thalamus (PVT and RE) also showed activation"
same,"c-fos-GFP activation, Anterior cingulate cortex (ACAd)",up
same,"c-fos-GFP activation, Anterior cingulate cortex (ACAv)",up
same,"c-fos-GFP activation, Basal, Central, Cortic. Amydgala (AMG)",up
same,"c-fos-GFP activation, Bed nucleus of Stria Terminalis (BST)",0
same,"c-fos-GFP activation, Caudate-putamen (CP, dorso-medial)",0
same,"c-fos-GFP activation, Caudate-putamen (CP, ventro-medial)",0
same,"c-fos-GFP activation, Caudoputamen (CP, dorsolateral)",up
same,"c-fos-GFP activation, Caudoputamen (CP, ventrolateral)",0
same,"c-fos-GFP activation, Central medial thalamic nucleus",up
same,"c-fos-GFP activation, Claustrum (CLA)",up
same,"c-fos-GFP activation, Dorsomedial hypoth. (HYP)",0
same,"c-fos-GFP activation, Gostatory Cx (GU)",up
same,"c-fos-GFP activation, Hippocampus: CA1, CA2, CA3 (HF)",up
same,"c-fos-GFP activation, Hippocampus: DG",down
same,"c-fos-GFP activation, Hypothalamus, ventromedial nuclei",0
same,"c-fos-GFP activation, Infralimbic cortex (IL)",up
same,"c-fos-GFP activation, Insular area, agranular",up
same,"c-fos-GFP activation, Lateral Septum (LS)",0
same,"c-fos-GFP activation, Lateral Spetal Nucl, dorsal part",up
same,"c-fos-GFP activation, Midline Thalamus (Nucl Reuniens, RE)",up
same,"c-fos-GFP activation, Midline Thalamus (PVT)",up
same,"c-fos-GFP activation, Motor area, primary (MOp)",up
same,"c-fos-GFP activation, Motor area, secondary (MOs)",up
same,"c-fos-GFP activation, Nucleus Accumbens (ACB), core",up
same,"c-fos-GFP activation, Nucleus Accumbens (ACB), shell",up
same,"c-fos-GFP activation, Nucleus Accumbens (ACB), whole",0
same,"c-fos-GFP activation, Olfactory tubercle (OT)",up
same,"c-fos-GFP activation, Orbital cortex ventral (VO)",0
same,"c-fos-GFP activation, Orbital cx (ORB), lateral",up
same,"c-fos-GFP activation, Orbital cx (ORB), medial",up
same,"c-fos-GFP activation, Piriform cx (PIR)",0
same,"c-fos-GFP activation, Prelimbic cx (PL)",up
same,"c-fos-GFP activation, RSPd, v, d and agl",up
same,"c-fos-GFP activation, Red nucleus (RN)",down
same,"c-fos-GFP activation, Somatosensory cx, primary",up
same,"c-fos-GFP activation, Striatum, ventro-lateral",up
same,"c-fos-GFP activation, Superior Colliculus (SC)",up
same,"c-fos-GFP activation, Temporal cortex",up
same,"c-fos-GFP activation, Ventromedial Thalamus (caudally)",up
same,"c-fos-GFP activation, Zona Inserta",up
Cc1nc2n(c(=O)c1CCN1CCC(c3noc4cc(F)ccc34)CC1)CCCC2 [risperidone],brain regions activated (pharmacomap),"activated the prelimbic (PL), orbital (ORB), piriform (PIR) and gustatory (GU) cortices, the dorsal and ventral CP, ACB, claustrum (CLA), and superior colliculus (SC)"
same,"c-fos-GFP activation, Anterior cingulate cortex (ACAd)",0
same,"c-fos-GFP activation, Anterior cingulate cortex (ACAv)",0
same,"c-fos-GFP activation, Basal, Central, Cortic. Amydgala (AMG)",0
same,"c-fos-GFP activation, Bed nucleus of Stria Terminalis (BST)",0
same,"c-fos-GFP activation, Caudate-putamen (CP, dorso-medial)",0
same,"c-fos-GFP activation, Caudate-putamen (CP, ventro-medial)",0
same,"c-fos-GFP activation, Caudoputamen (CP, dorsolateral)",up
same,"c-fos-GFP activation, Caudoputamen (CP, ventrolateral)",up
same,"c-fos-GFP activation, Central medial thalamic nucleus",0
same,"c-fos-GFP activation, Claustrum (CLA)",up
same,"c-fos-GFP activation, Dorsomedial hypoth. (HYP)",0
same,"c-fos-GFP activation, Gostatory Cx (GU)",up
same,"c-fos-GFP activation, Hippocampus: CA1, CA2, CA3 (HF)",0
same,"c-fos-GFP activation, Hippocampus: DG",0
same,"c-fos-GFP activation, Hypothalamus, ventromedial nuclei",down
same,"c-fos-GFP activation, Infralimbic cortex (IL)",0
same,"c-fos-GFP activation, Insular area, agranular",0
same,"c-fos-GFP activation, Lateral Septum (LS)",0
same,"c-fos-GFP activation, Lateral Spetal Nucl, dorsal part",0
same,"c-fos-GFP activation, Midline Thalamus (Nucl Reuniens, RE)",0
same,"c-fos-GFP activation, Midline Thalamus (PVT)",0
same,"c-fos-GFP activation, Motor area, primary (MOp)",0
same,"c-fos-GFP activation, Motor area, secondary (MOs)",0
same,"c-fos-GFP activation, Nucleus Accumbens (ACB), core",up
same,"c-fos-GFP activation, Nucleus Accumbens (ACB), shell",0
same,"c-fos-GFP activation, Nucleus Accumbens (ACB), whole",0
same,"c-fos-GFP activation, Olfactory tubercle (OT)",0
same,"c-fos-GFP activation, Orbital cortex ventral (VO)",up
same,"c-fos-GFP activation, Orbital cx (ORB), lateral",up
same,"c-fos-GFP activation, Orbital cx (ORB), medial",up
same,"c-fos-GFP activation, Piriform cx (PIR)",up
same,"c-fos-GFP activation, Prelimbic cx (PL)",down
same,"c-fos-GFP activation, RSPd, v, d and agl",0
same,"c-fos-GFP activation, Red nucleus (RN)",0
same,"c-fos-GFP activation, Somatosensory cx, primary",0
same,"c-fos-GFP activation, Striatum, ventro-lateral",0
same,"c-fos-GFP activation, Superior Colliculus (SC)",0
same,"c-fos-GFP activation, Temporal cortex",0
same,"c-fos-GFP activation, Ventromedial Thalamus (caudally)",0
same,"c-fos-GFP activation, Zona Inserta",0

# Reference: patent publication US20140297199A1, “DRUG SCREENING METHOD AND USES THEREOF” (COLD SPRING HARBOR LABORATORY, priority 2011, published 2014)
